# Results published in US11357779B2 (G1 Therapeutics, Inc., priority 2018, dated 2022).
# Test: Dynamic vapor sorption (moisture sorption) experiment
# Details: for stability in the moisture sorption experiment (XRPD of dried sample): after DVS
# Procedure: Dynamic vapor sorption experiments were performed on Form A, Form B, and Form D. Table 103 provides the results of the DVS experiment.
SMILES,stability in the moisture sorption experiment (XRPD of dried sample) (dried at 60° C. and 0% RH),moisture adsorbed (60% RH) [wt %],moisture adsorbed (90% RH) [wt %],"% wt change at 60% RH (DVS, 60% RH) [% wt]","% wt change at 90% RH (DVS, 90% RH) [% wt]","XRPD (post DVS) (after moisture sorption experiment, dried at 60° C. and 0% RH)"
"CC(C)N1CCN(c2ccc(Nc3ncc4cc5n(c4n3)C3(CCCCC3)CNC5=O)nc2)CC1 [Compound II, 2′-((5-(4-isopropylpiperazin-1-yl)pyridin-2-yl)amino)-7′,8′-dihydro-6′H-spiro[cyclohexane-1,9′-pyrazino[1′,2′:1,5]pyrrolo[2,3-d]pyrimidin]-6′-one]",remained in Form B,–,–,–,–,–
CC(C)N1CCN(c2ccc(Nc3ncc4cc5n(c4n3)C3(CCCCC3)CNC5=O)nc2)CC1 [Form B],stable,5.8,5.9,5.8,5.9,Form B
